Legend:
[1] = target: T1, Discoidin domain-containing receptor 2 (Homo sapiens, UniProt Q16832); experiment: DDR1 and DDR2 Biochemical Assay
T1 sequence (Q16832 whole entry): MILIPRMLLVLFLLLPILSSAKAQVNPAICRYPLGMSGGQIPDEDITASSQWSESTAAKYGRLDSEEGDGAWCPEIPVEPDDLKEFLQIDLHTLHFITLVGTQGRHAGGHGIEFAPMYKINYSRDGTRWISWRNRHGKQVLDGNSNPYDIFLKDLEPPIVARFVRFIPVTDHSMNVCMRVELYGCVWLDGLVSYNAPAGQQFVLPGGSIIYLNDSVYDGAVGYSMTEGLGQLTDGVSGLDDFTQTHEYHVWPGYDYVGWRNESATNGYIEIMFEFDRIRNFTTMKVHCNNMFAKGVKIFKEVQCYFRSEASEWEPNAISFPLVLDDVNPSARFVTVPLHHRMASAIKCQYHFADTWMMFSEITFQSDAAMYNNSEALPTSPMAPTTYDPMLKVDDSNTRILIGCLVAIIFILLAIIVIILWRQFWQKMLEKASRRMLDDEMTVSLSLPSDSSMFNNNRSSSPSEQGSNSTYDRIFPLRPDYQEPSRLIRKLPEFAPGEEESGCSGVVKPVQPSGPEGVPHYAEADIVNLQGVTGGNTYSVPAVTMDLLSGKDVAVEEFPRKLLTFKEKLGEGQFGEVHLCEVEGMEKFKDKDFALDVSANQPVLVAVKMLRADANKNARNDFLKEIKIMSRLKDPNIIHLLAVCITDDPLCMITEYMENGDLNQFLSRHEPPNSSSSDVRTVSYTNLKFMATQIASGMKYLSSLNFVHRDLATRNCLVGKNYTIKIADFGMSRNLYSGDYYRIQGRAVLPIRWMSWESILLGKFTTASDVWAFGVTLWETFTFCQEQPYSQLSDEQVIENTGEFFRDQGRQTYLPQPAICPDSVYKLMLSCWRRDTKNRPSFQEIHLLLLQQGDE
Procedure: (§1) The capacity of compounds to bind to DDR1 and DDR2 was quantified using a LanthaScreen Eu Kinase Binding Assay. Recombinant human DDR1 (2.5 nM; aa440-876 containing a GST tag) and DDR2 (1.75 nM; aa427-855 containing a GST tag) were diluted in assay buffer (50 mM HEPES pH7.3, 10 mM MgCl2, 1 mM EGTA and 0.01% Tween) with various concentrations of compound in a 384-well plate and a volume of 5 uL. After a 30-minute incubation at room temperature, 2.5 uL of Eu-anti GST antibody (diluted to 1 nM in assay buffer) plus Kinase Tracer 178 (diluted in assay buffer to 5 nM for DDR1 and 10 nM for DDR2) were added to the plate. Following 60-minute incubation at room temperature, time-resolved fluorescence was measured on a BMG Labtech PHERAstar plate reader. DMSO (1%) and reference compound (1 μM) were used to generate the Max and Min assay signals, respectively. Data was analysed using a four-parameter logistic model to calculate IC50 values, with at least two independent replicates were performed for each compound.

[2] = target: Epithelial discoidin domain-containing receptor 1 (Homo sapiens, UniProt Q08345); experiment: DDR1 and DDR2 Biochemical Assay
Procedure: as §1

Chain of Epithelial discoidin domain-containing receptor 1 (Q08345 whole entry, the tested form may be a part): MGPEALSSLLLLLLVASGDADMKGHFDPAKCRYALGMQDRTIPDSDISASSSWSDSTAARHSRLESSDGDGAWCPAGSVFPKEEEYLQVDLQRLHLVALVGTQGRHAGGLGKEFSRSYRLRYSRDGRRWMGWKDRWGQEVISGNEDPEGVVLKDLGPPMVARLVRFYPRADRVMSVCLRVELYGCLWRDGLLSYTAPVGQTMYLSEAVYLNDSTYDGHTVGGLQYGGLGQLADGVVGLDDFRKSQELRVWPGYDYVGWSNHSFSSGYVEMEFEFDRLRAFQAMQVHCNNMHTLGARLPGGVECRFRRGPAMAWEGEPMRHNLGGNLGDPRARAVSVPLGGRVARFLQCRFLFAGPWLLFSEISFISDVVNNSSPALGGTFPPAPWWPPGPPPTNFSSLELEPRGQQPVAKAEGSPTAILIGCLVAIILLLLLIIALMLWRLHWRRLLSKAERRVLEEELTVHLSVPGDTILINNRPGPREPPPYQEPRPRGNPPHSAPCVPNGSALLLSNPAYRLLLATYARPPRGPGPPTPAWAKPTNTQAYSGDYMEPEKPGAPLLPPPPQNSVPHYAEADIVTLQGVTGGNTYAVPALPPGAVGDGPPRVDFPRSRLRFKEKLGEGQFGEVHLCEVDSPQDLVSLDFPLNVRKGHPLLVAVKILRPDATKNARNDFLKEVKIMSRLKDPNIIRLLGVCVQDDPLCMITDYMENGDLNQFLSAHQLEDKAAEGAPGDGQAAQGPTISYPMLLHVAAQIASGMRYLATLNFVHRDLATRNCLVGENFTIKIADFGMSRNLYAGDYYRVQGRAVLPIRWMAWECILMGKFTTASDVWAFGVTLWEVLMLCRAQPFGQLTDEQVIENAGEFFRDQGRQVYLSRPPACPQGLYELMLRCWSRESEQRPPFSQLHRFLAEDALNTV

IC50 [1] | IC50 [2] | Structure (SMILES)
< 10 nM | < 10 nM | Cc1n[nH]c2cc(Nc3cccc4c3C(=O)N(CC(=O)NCC(F)(F)F)C4)ccc12 [US20260069571, Example 6]
– | < 10 nM | Cn1ncc2cc(Nc3cccc4c3C(=O)N(CC(=O)N3CCCC(C(F)(F)F)C3)C4)ccc21 (stereo not drawn) [US20260069571, Example 12]
